Experimental data as given in Sander's compilation of Henry's law constants.

Key:
[1] = Henry solubility constant Hcp at 278 K (mol/(m3 Pa))
[2] = Henry solubility constant Hcp at 298.15 K (mol/(m3 Pa))
[3] = Henry solubility constant Hcp at 294 K (mol/(m3 Pa))
[4] = Henry solubility constant Hcp at 290 K (mol/(m3 Pa)); conditions: reference: Thomas et al. (2006)
[5] = Henry solubility constant Hcp at 301 K (mol/(m3 Pa)); conditions: reference: Nelson and Hoff (1968)
[6] = Henry solubility constant Hcp at 303 K (mol/(m3 Pa)); conditions: reference: Richon et al. (1985)
[7] = Henry solubility constant Hcp at 288 K (mol/(m3 Pa))
[8] = Henry solubility constant Hcp at 291 K (mol/(m3 Pa))
[9] = Henry solubility constant Hcp at 293 K (mol/(m3 Pa))
[10] = Henry solubility constant Hcp at 297 K (mol/(m3 Pa))
[11] = Henry solubility constant Hcp at 295 K (mol/(m3 Pa)); conditions: reference: Lee and Schwartz (1981)
[12] = reference: Pividal et al. (1992)
[13] = reference: Komiyama and Inoue (1980)

COO [methyl hydroperoxide]
Henry solubility constant Hcp at 278 K ([1]; reference: Sauer (1997)): 12 | Henry solubility constant Hcp ([2]; reference: Li et al. (2004)): 2.5 | Henry solubility constant Hcp ([2]; reference: Lind and Kok (1994)): 3 | Henry solubility constant Hcp ([2]; reference: Magi et al. (1997)): > 6.9 | Henry solubility constant Hcp ([2]; reference: O’Sullivan et al. (1996)): 3.1

CBr [bromomethane]
Henry solubility constant Hcp at 294 K ([3]; reference: Gan and Yates (1996)): 0.0014 | Henry solubility constant Hcp at 290 K [4]: 0.002 | Henry solubility constant Hcp ([2]; reference: De Bruyn and Saltzman (1997)): 0.0018 | Henry solubility constant Hcp ([2]; reference: Elliott and Rowland (1993)): 0.0017 | Henry solubility constant Hcp ([2]; reference: Glew and Moelwyn-Hughes (1953)): 0.0016 | Henry solubility constant Hcp ([2]; reference: Swain and Thornton (1962)): 0.0015

Clc1ccc(Cl)c(-c2ccc(Cl)c(Cl)c2)c1 [2,3',4',5-tetrachlorobiphenyl]
Henry solubility constant Hcp at 294 K ([3]; reference: Brownawell (1986)): 0.11 | Henry solubility constant Hcp ([2]; reference: Murphy et al. (1983a)): 0.049

CC(C)CC=O [3-methylbutanal]
Henry solubility constant Hcp at 301 K [5]: 0.02 | Henry solubility constant Hcp ([2]; reference: Bruneel et al. (2016)): 0.011 | Henry solubility constant Hcp ([2]; reference: Pollien et al. (2003)): 0.026 | Henry solubility constant Hcp ([2]; reference: Wieland et al. (2015)): 0.024

CCOC(C)=O [ethyl ethanoate]
Henry solubility constant Hcp at 301 K [5]: 0.057 | Henry solubility constant Hcp at 303 K [6]: 0.043 | Henry solubility constant Hcp at 288 K ([7]; reference: Ioffe et al. (1984)): 0.13 | Henry solubility constant Hcp at 288 K [7, 12]: 0.11 | Henry solubility constant Hcp ([2]; reference: Ammari and Schroen (2019)): 0.052 | Henry solubility constant Hcp ([2]; reference: Aprea et al. (2007)): 0.051 | Henry solubility constant Hcp ([2]; reference: Butler and Ramchandani (1935)): 0.074 | Henry solubility constant Hcp ([2]; reference: Druaux et al. (1998)): 0.066 | Henry solubility constant Hcp ([2]; reference: Fenclová et al. (2014)): 0.062 | Henry solubility constant Hcp ([2]; reference: Jones et al. (1988)): 0.062 | Henry solubility constant Hcp ([2]; reference: Kieckbusch and King (1979b)): 0.058 | Henry solubility constant Hcp ([2]; reference: Kutsuna and Kaneyasu (2021)): 0.059 | Henry solubility constant Hcp ([2]; reference: Kutsuna et al. (2005)): 0.059 | Henry solubility constant Hcp ([2]; reference: Landy et al. (1995)): 0.057

O=[O+][O-] [ozone]
Henry solubility constant Hcp at 291 K ([8]; reference: Schöne (1873)): 0.00012 | Henry solubility constant Hcp at 293 K ([9]; reference: Gurol and Singer (1982)): 0.00017 | Henry solubility constant Hcp at 293 K ([9]; reference: Levanov et al. (2008)): 0.00011 | Henry solubility constant Hcp ([2]; reference: Andreozzi et al. (1996)): 9.2e-05 | Henry solubility constant Hcp ([2]; reference: Briner and Perrottet (1939)): 0.00013 | Henry solubility constant Hcp ([2]; reference: Fischer and Tropsch (1917)): 0.0002 | Henry solubility constant Hcp ([2]; reference: Gershenzon et al. (2001)): 0.00011 | Henry solubility constant Hcp ([2]; reference: Kilpatrick et al. (1956)): 9.9e-05 | Henry solubility constant Hcp ([2]; reference: Kosak-Channing and Helz (1983)): 0.00011 | Henry solubility constant Hcp ([2]; reference: Luther (1905)): 8e-05 | Henry solubility constant Hcp ([2]; reference: Mailfert (1894)): 0.00012 | Henry solubility constant Hcp ([2]; reference: Rischbieter et al. (2000)): 9.9e-05 | Henry solubility constant Hcp ([2]; reference: Sotelo et al. (1989)): 0.00012 | Henry solubility constant Hcp ([2]; reference: Stumm (1958)): 0.00012

[N]=O [nitrogen monoxide]
Henry solubility constant Hcp at 297 K ([10]; reference: Zafiriou and McFarland (1980)): 1.3e-05 | Henry solubility constant Hcp at 288 K [7, 13]: 2.3e-05 | Henry solubility constant Hcp ([2]; reference: Komiyama and Inoue (1978)): 1.9e-05 | Henry solubility constant Hcp ([2]; reference: Winkler (1901)): 1.9e-05

O=COO [methanoic peroxyacid]
Henry solubility constant Hcp at 278 K ([1]; reference: Sauer (1997)): 29

O=C(Cl)C(Cl)(Cl)Cl [trichloroacetylchloride]
Henry solubility constant Hcp at 278 K ([1]; reference: De Bruyn et al. (1995a)): 0.02 | Henry solubility constant Hcp ([2]; reference: George et al. (1994a)): 0.02 | Henry solubility constant Hcp ([2]; reference: Mirabel et al. (1996)): 0.02

CC(C)O [2-propanol]
Henry solubility constant Hcp at 288 K [7, 12]: 1.4 | Henry solubility constant Hcp at 293 K ([9]; reference: Yu (1992)): 0.98 | Henry solubility constant Hcp ([2]; reference: Butler et al. (1935)): 1.2 | Henry solubility constant Hcp ([2]; reference: Kim et al. (2000)): 1.1 | Henry solubility constant Hcp ([2]; reference: Lin and Chou (2006)): 1.3 | Henry solubility constant Hcp ([2]; reference: Snider and Dawson (1985)): 1.2

Cl/C=C/CCl [trans-1,3-dichloropropene]
Henry solubility constant Hcp at 290 K [4]: 0.015 | Henry solubility constant Hcp ([2]; reference: Leistra (1970)): 0.0081

[O]N=O [nitrogen dioxide]
Henry solubility constant Hcp at 295 K [11]: 6.9e-05 | Henry solubility constant Hcp at 288 K [7, 13]: 0.00023 | Henry solubility constant Hcp ([2]; reference: Cheung et al. (2000)): 0.00012

C[Si]1(C)O[Si](C)(C)O[Si](C)(C)O[Si](C)(C)O[Si](C)(C)O[Si](C)(C)O1 [dodecamethylcyclohexasiloxane]
Henry solubility constant Hcp at 297 K ([10]; reference: Xu and Kropscott (2012)): 4e-07

CCC(O)CO[N+](=O)[O-] (stereo unspecified) [1-nitrooxy-2-butanol]
Henry solubility constant Hcp at 291 K ([8]; reference: Treves et al. (2000)): 89
